Where two headings read alike, the source gives them in different places. Where a SMILES comes first, the peptide text is derived from it.
Legend:
[1] = ADA: data of Schwarzenbach et al. (1955); cited from earlier work
[2] = cited from earlier work; for αpKa /° C.: change of pKa per ° C.
[3] = ADA: data of Schwarzenbach et al. (1955); cited from earlier work; remark: listed apart in the source
[4] = ADA: data of Schwarzenbach et al. (1955); cited from earlier work; remark: listed apart in the source
[5] = ADA: data of Schwarzenbach et al. (1955); cited from earlier work; remark: listed apart in the source
[6] = cited from earlier work
[7] = test system: giant platelets and histiocytes; test: Giant platelets and histiocytes on peripheral smear; format: in vivo, animals; conditions: blood / peripheral smear
Description: (§1) The amphoteric zwitterion compounds may be employed as active ingredients with other active ingredients, as well as other components and carriers typically used in pharmaceutical compositions; such as, but not limited to: buffers, stabilizers, dyes, antioxidants, dispersing agents, fillers, surfactants, silicones, bulking agents, pigments, salts, human or animal (natural or synthetic) cells and cellular components, antibiotics, drugs, vitamins, amino acids, proteins, serum and various other compounds and combinations thereof in varying amounts.

cancer tumors = test: Macrophage infiltration of tumors; format: in vivo, dogs; conditions: dogs
Description: as §1

[8] = as the hydrochloride (footnote b)

Compound: NCC(=O)NCC(=O)O [Glycylglycine] (H-Gly-Gly-OH)
- Metal-Buffer Binding Constants Log KM, Mn^2+ [1]: 1.7
- pKa at 20° [2]: 8.4
- Metal-Buffer Binding Constants Log KM, Cu^2+ [3]: 5.8

Compound: O=S(=O)(O)CCNC(CO)(CO)CO [TES]
- Metal-Buffer Binding Constants Log KM, Mn^2+ [1]: Negl
- pKa at 20° [2]: 7.5
- Metal-Buffer Binding Constants Log KM, Ca^2+ [4]: Negl
- Metal-Buffer Binding Constants Log KM, Mg^2+ [5]: Negl
- Metal-Buffer Binding Constants Log KM, Cu^2+ [3]: 3.2
- Saturated Solution at 0° [6]: 2.6 M

Compound: O=C(O)CN(CCO)CCO [Bicine]
- αpKa /° C. [2]: -0.018
- Metal-Buffer Binding Constants Log KM, Ca^2+ [4]: 2.8
- Metal-Buffer Binding Constants Log KM, Mg^2+ [5]: 1.5

Compound: NC(=O)CN(CC(=O)O)CC(=O)O [ADA]
- Metal-Buffer Binding Constants Log KM, Mn^2+ [1]: 4.9
- pKa at 20° [2]: 6.6
- Metal-Buffer Binding Constants Log KM, Ca^2+ [4]: 4.0
- Metal-Buffer Binding Constants Log KM, Mg^2+ [5]: 2.5
- Metal-Buffer Binding Constants Log KM, Cu^2+ [3]: 9.7

Compound: O=S(=O)(O)CCN(CCO)CCO [BES]
- Metal-Buffer Binding Constants Log KM, Mn^2+ [1]: Negl
- pKa at 20° [2]: 7.15
- Metal-Buffer Binding Constants Log KM, Ca^2+ [4]: Negl
- Metal-Buffer Binding Constants Log KM, Mg^2+ [5]: Negl
- Metal-Buffer Binding Constants Log KM, Cu^2+ [3]: 3.5

Compound: NC(=O)CNCCS(=O)(=O)O [ACES]
- Metal-Buffer Binding Constants Log KM, Mn^2+ [1]: Negl
- pKa at 20° [2]: 6.9
- αpKa /° C. [2]: -0.020
- Metal-Buffer Binding Constants Log KM, Cu^2+ [3]: 4.6
- Saturated Solution at 0° [6]: 0.22 M

Compound: NC(CO)(CO)CO [Tris]
- Metal-Buffer Binding Constants Log KM, Mn^2+ [1]: Negl
- Metal-Buffer Binding Constants Log KM, Ca^2+ [4]: Negl
- Metal-Buffer Binding Constants Log KM, Mg^2+ [5]: Negl
- Saturated Solution at 0° [6]: 2.4 M

Compound: NC(=O)CNCC(=O)O [Acetamidoglycine, Acetamido-glycine]
- pKa at 20° [2]: ~7.7

Compound: NCC(N)=O [Glycinamide]
- pKa at 20° [2]: 8.2
- αpKa /° C. [2]: -0.029
- Saturated Solution at 0° [6, 8]: 4.6 M

Compound: O=S(=O)(O)CCN1CCN(CCS(=O)(=O)O)CC1 [PIPES]
- Metal-Buffer Binding Constants Log KM, Mn^2+ [1]: Negl
- giant platelets and histiocytes [7]: production of giant platelets and histiocytes
- Metal-Buffer Binding Constants Log KM, Ca^2+ [4]: Negl
- Metal-Buffer Binding Constants Log KM, Mg^2+ [5]: Negl
- Metal-Buffer Binding Constants Log KM, Cu^2+ [3]: Negl
- macrophage infiltration of cancer tumors (cancer tumors): macrophage infiltration of cancer tumors in dogs

Compound: O=C(O)CNC(CO)(CO)CO [Tricine]
- Metal-Buffer Binding Constants Log KM, Ca^2+ [4]: 2.4
- Metal-Buffer Binding Constants Log KM, Mg^2+ [5]: 1.2
- Metal-Buffer Binding Constants Log KM, Cu^2+ [3]: 7.3
- Saturated Solution at 0° [6]: 0.8 M

Compound: C[N+](C)(C)CCN [Cholamine chloride]
- Metal-Buffer Binding Constants Log KM, Mn^2+ [1]: Negl
- pKa at 20° [2]: 7.1
- αpKa /° C. [2]: -0.027
- Metal-Buffer Binding Constants Log KM, Ca^2+ [4]: Negl
- Metal-Buffer Binding Constants Log KM, Mg^2+ [5]: Negl
- Metal-Buffer Binding Constants Log KM, Cu^2+ [3]: Negl
- Saturated Solution at 0° [6, 8]: 4.2 M

Compound: O=S(=O)(O)CCN1CCOCC1 [MES]
- Metal-Buffer Binding Constants Log KM, Cu^2+ [3]: Negl
